Data: US20080234262A1 (Wyeth, priority 2007, published 2008)

How the values were obtained:
PI3K = PI3K (Homo sapiens, UniProt P42336); experiment: Fluorescence polarization assay for PI3K; assay type: biochemical; conditions: PI3Kα; read-out: PI3Kα IC50;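 also: PI3K kinase reaction on PIP2 with ATP, 30-60 min, product sensed by GST-GRP with red probe in fluorescence polarization (mP), controls without enzyme and at zero time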
prostate line LNCap = experiment: In vitro cell culture growth assay (MTS), LNCap; assay type: cell-based, human; conditions: LNCap cells, three days after drug treatment
breast line MDA468 = experiment: In vitro cell culture growth assay (MTS), MDA468; assay type: cell-based, human; conditions: MDA468 cells, three days after drug treatment
Summary of the method: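 MDA468 or LNCap cells received inhibitors one day after plating and were grown for three days. Viable cell density read by MTS conversion, absorbance 490 nm, expressed as percent of control growth versus vehicle-treated cells on the same plate.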

PI3K, sequence (P42336 whole entry): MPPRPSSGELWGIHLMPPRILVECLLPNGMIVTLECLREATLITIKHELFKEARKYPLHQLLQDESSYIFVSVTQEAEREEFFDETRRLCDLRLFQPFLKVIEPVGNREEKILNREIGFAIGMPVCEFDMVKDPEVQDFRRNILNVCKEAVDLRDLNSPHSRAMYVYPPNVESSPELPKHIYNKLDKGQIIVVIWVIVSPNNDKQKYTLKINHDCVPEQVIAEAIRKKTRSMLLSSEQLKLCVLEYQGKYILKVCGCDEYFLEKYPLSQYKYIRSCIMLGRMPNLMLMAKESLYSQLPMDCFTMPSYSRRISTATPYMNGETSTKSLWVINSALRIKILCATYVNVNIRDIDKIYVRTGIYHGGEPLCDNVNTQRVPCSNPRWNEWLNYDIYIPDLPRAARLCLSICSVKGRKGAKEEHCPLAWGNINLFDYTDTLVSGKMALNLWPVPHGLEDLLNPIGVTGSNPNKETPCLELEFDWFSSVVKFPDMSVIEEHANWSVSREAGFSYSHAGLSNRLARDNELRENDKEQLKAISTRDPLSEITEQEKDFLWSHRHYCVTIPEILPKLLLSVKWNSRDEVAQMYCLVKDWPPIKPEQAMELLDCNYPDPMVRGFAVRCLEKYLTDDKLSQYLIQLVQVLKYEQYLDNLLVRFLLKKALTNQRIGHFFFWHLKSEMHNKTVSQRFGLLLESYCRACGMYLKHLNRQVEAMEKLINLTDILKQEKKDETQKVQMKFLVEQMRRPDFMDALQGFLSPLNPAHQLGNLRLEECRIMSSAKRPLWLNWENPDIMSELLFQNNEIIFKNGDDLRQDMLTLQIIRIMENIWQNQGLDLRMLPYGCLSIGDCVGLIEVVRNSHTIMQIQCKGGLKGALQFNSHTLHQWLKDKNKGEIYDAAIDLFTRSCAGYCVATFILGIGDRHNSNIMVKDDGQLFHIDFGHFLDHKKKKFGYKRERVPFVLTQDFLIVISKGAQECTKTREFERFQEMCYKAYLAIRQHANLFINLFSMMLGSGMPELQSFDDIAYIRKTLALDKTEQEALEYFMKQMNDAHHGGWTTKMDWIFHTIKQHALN
PI3K, sequence (P27986 whole entry partner): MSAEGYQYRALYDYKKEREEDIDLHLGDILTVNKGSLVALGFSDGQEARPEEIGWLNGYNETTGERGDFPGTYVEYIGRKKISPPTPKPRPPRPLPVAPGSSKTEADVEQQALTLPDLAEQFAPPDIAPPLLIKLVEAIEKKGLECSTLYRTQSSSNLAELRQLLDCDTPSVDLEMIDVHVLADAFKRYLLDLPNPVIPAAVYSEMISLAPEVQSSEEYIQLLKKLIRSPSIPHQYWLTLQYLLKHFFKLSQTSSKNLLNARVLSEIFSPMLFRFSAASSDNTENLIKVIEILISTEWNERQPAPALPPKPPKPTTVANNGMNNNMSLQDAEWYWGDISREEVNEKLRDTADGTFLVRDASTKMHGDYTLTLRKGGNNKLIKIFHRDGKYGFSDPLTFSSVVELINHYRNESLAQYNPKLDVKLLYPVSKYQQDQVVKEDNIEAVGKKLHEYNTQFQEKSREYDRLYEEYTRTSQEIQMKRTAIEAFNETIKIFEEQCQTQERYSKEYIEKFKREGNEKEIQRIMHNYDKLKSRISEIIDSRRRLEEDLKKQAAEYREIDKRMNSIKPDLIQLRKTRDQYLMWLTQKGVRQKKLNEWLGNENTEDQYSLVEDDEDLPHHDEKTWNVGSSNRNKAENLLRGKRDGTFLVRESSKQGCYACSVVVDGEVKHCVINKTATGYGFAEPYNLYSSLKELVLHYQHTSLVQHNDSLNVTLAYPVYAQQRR

SMILES	IC50 (PI3K) [µM]	IC50 (prostate line LNCap; Homo sapiens, LNCaP, 72 h) [µM]	IC50 (prostate line LNCap) [µM]	IC50 (breast line MDA468; Homo sapiens, 72 h) [µM]	IC50 (breast line MDA468) [µM]
NC(=O)Nc1cccc(-c2nc(N3CCOCC3)c3cnn(C4CCN(Cc5ccccc5)CC4)c3n2)c1 [Compound 483, N-{3-[1-(1-benzylpiperidin-4-yl)-4-morpholin-4-yl-1H-pyrazolo[3,4-d]pyrimidin-6-yl]phenyl}urea]	2.17	6.8		12	
CCCOC(=O)N1CCC(n2ncc3c(N4CCOCC4)nc(-c4ccc(NC(=O)NCC)cc4)nc32)CC1 [Compound 852, propyl 4-(6-{4-[(ethylcarbamoyl)amino]phenyl}-4-morpholin-4-yl-1H-pyrazolo[3,4-d]pyrimidin-1-yl)piperidine-1-carboxylate]	0.577	0.08		0.51	
CC(C)(C)OC(=O)N1CCC(n2ncc3c(N4CCOCC4)nc(-c4ccc(NC(=O)Nc5ccc(F)nc5)cc4)nc32)CC1 [Compound 952, tert-butyl 4-[6-(4-{[(6-fluoropyridin-3-yl)carbamoyl]amino}phenyl)-4-morpholin-4-yl-1H-pyrazolo[3,4-d]pyrimidin-1-yl]piperidine-1-carboxylate]	0.13	0.06		0.75	
COC(=O)Nc1ccc(-c2nc(N3CCOCC3)c3cnn(C4CCN(Cc5ccc(Cl)cc5)CC4)c3n2)cc1 [Compound 695, methyl (4-{1-[1-(4-chlorobenzyl)piperidin-4-yl]-4-morpholin-4-yl-1H-pyrazolo[3,4-d]pyrimidin-6-yl}phenyl)carbamate]	0.388		2		9
CC(C)C(=O)N1CCC(n2ncc3c(N4CCOCC4)nc(-c4ccc(NC(=O)Nc5ccccn5)cc4)nc32)CC1 [Compound 827, 1-{4-[1-(1-isobutyrylpiperidin-4-yl)-4-morpholin-4-yl-1H-pyrazolo[3,4-d]pyrimidin-6-yl]phenyl}-3-pyridin-2-ylurea]	2.26	0.6		16	
NCC(=O)Nc1ccc(-c2nc(N3CCOCC3)c3cn[nH]c3n2)cc1 [Compound 528, N-[4-(4-morpholin-4-yl-1H-pyrazolo[3,4-d]pyrimidin-6-yl)phenyl]glycinamide]	0.128	9		11	
CCOC(=O)Nc1ccc(-c2nc(N3CCOCC3)c3cnn(C4CCN(Cc5ccccc5)CC4)c3n2)cc1 [Compound 207, ethyl {4-[1-(1-benzylpiperidin-4-yl)-4-morpholin-4-yl-1H-pyrazolo[3,4-d]pyrimidin-6-yl]phenyl}carbamate]	0.659	3		5.2	
CC(=O)NCc1ccc(-c2nc(N3CCOCC3)c3cnn(-c4ccccc4)c3n2)cc1 [Compound 147]	0.35	5.6		22	
CCCOC(=O)N1CCC(n2ncc3c(N4CCOCC4)nc(-c4ccc(NC(=O)OC)cc4)nc32)CC1 [Compound 857, propyl 4-(6-{4-[(methoxycarbonyl)amino]phenyl}-4-morpholin-4-yl-1H-pyrazolo[3,4-d]pyrimidin-1-yl)piperidine-1-carboxylate]	2.77	1.6		5	
O=C(NCCF)Nc1ccc(-c2nc(N3CCOCC3)c3cnn(-c4ccccc4)c3n2)cc1 [Compound 540, 1-(2-fluoroethyl)-3-[4-(4-morpholin-4-yl-1-phenyl-1H-pyrazolo[3,4-d]pyrimidin-6-yl)phenyl]urea]	0.25	0.19		0.9	
C=CC(=O)N1CCC(n2ncc3c(N4CCOCC4)nc(-c4ccc(NC(=O)OC)cc4)nc32)CC1 [Compound 458, methyl {4-[1-(1-acryloylpiperidin-4-yl)-4-morpholin-4-yl-1H-pyrazolo[3,4-d]pyrimidin-6-yl]phenyl}carbamate]	1.98	0.93		1.2	
C/C=C/C(=O)N1CCC(n2ncc3c(N4CCOCC4)nc(-c4ccc(NC(=O)NC)cc4)nc32)CC1 [Compound 756, 1-[4-(1-{1-[(2E)-but-2-enoyl]piperidin-4-yl}-4-morpholin-4-yl-1H-pyrazolo[3,4-d]pyrimidin-6-yl)phenyl]-3-methylurea]	0.174	0.5		0.5	
CC(C)(C)OC(=O)N1CCC(n2ncc3c(N4CCOCC4)nc(-c4ccc(NC(=O)Nc5ncccn5)cc4)nc32)CC1 [Compound 886, tert-butyl 4-(4-morpholin-4-yl-6-{4-[(pyrimidin-2-ylcarbamoyl)amino]phenyl}-1H-pyrazolo[3,4-d]pyrimidin-1-yl)piperidine-1-carboxylate]	1.23	2.6		6.7	
Cc1ccc(CN2CCC(n3ncc4c(N5CCOCC5)nc(-c5ccc6[nH]ccc6c5)nc43)CC2)cc1 [Example 56]	0.425	2		2.7	
O=C(NCCF)Nc1ccc(-c2nc(N3CCOCC3)c3cnn(C4CCN(CCCCO)CC4)c3n2)cc1 [Compound 747, 1-(2-fluoroethyl)-3-(4-{1-[1-(4-hydroxybutyl)piperidin-4-yl]-4-morpholin-4-yl-1H-pyrazolo[3,4-d]pyrimidin-6-yl}phenyl)urea]	0.782	3.3		6.66	
COC(=O)Nc1ccc(-c2nc(N3CCOCC3)c3cnn(C4CCN(C(=O)c5ccccc5OC)CC4)c3n2)cc1 [Example 446, methyl (4-{1-[1-(2-methoxybenzoyl)piperidin-4-yl]-4-morpholin-4-yl-1H-pyrazolo[3,4-d]pyrimidin-6-yl}phenyl)carbamate]	0.888	0.35		0.9	
CC(c1ccccc1)N1CCC(n2ncc3c(N4CCOCC4)nc(-c4ccc5[nH]ccc5c4)nc32)CC1 (stereo not drawn) [Compound 490, 6-(1H-indol-5-yl)-4-morpholin-4-yl-1-[1-(1-phenylethyl)piperidin-4-yl]-1H-pyrazolo[3,4-d]pyrimidine]	2.67	3.8		3.5	
CNC(=O)Nc1ccc(-c2nc(N3CCOCC3)c3cnn(C4CCN(Cc5cccnc5)CC4)c3n2)cc1F [Compound 597, 1-(2-fluoro-4-{4-morpholin-4-yl-1-[1-(pyridin-3-ylmethyl)piperidin-4-yl]-1H-pyrazolo[3,4-d]pyrimidin-6-yl}phenyl)-3-methylurea]	0.246	0.027		0.18	
CCNC(=O)Nc1ccc(-c2nc(N3CCOCC3)c3cnn(C4CCNCC4)c3n2)cc1 [Compound 773]	0.306	0.62		0.39	

The next compounds have a lower IC50 (PI3K) than those just listed; values first:

IC50 (PI3K) [µM]	IC50 (prostate line LNCap; Homo sapiens, LNCaP, 72 h) [µM]	IC50 (prostate line LNCap) [µM]	SMILES	IC50 (breast line MDA468; Homo sapiens, 72 h) [µM]	IC50 (breast line MDA468) [µM]
0.042	0.1		CNC(=O)Nc1ccc(-c2nc(N3CCOCC3)c3cnn(C4CCN(Cc5cccc(Cl)c5)CC4)c3n2)cc1 [Example 395, 1-(4-{1-[1-(3-chlorobenzyl)piperidin-4-yl]-4-morpholin-4-yl-1H-pyrazolo[3,4-d]pyrimidin-6-yl}phenyl)-3-methylurea]	0.5	
0.03		0.027	CNC(=O)Nc1ccc(-c2nc(N3CCOCC3)c3cnn(C4CCN(Cc5ccc(Br)nc5)CC4)c3n2)cc1 [Compound 634, 1-[4-(1-{1-[(6-bromopyridin-3-yl)methyl]piperidin-4-yl}-4-morpholin-4-yl-1H-pyrazolo[3,4-d]pyrimidin-6-yl)phenyl]-3-methylurea]		0.08
0.014		0.035	O=C(Nc1ccc(-c2nc(N3CCOCC3)c3cnn(C4CCN(C(=O)c5cccnc5)CC4)c3n2)cc1)Nc1cccs1 [Compound 657, 1-(4-{4-morpholin-4-yl-1-[1-(pyridin-3-ylcarbonyl)piperidin-4-yl]-1H-pyrazolo[3,4-d]pyrimidin-6-yl}phenyl)-3-(2-thienyl)urea]	0.04	
0.014	2		NCCNC(=O)Nc1ccc(-c2nc(N3CCOCC3)c3cnn(C4CCN(Cc5ccccc5)CC4)c3n2)cc1 [Example 267, 1-(2-aminoethyl)-3-{4-[1-(1-benzylpiperidin-4-yl)-4-morpholin-4-yl-1H-pyrazolo[3,4-d]pyrimidin-6-yl]phenyl}urea]	2.7	
0.124		0.12	CNC(=O)Nc1ccc(-c2nc(N3CCOCC3)c3cnn(C4CCN(C(=O)c5ccccn5)CC4)c3n2)cc1 [Compound 662, 1-methyl-3-(4-{4-morpholin-4-yl-1-[1-(pyridin-2-ylcarbonyl)piperidin-4-yl]-1H-pyrazolo[3,4-d]pyrimidin-6-yl}phenyl)urea]		0.22
0.106	0.37		CCCCNC(=O)Nc1ccc(-c2nc(N3CCOCC3)c3cnn(C4CCN(Cc5cccnc5)CC4)c3n2)cc1 [Example 212, 1-Butyl-3-(4-{4-morpholin-4-yl-1-[1-(pyridin-3-ylmethyl)piperidin-4-yl]-1H-pyrazolo[3,4-d]pyrimidin-6-yl}phenyl)urea]	1.4	
0.029	1.2		CNCCNC(=O)Nc1ccc(-c2nc(N3CCOCC3)c3cnn(C4CCN(Cc5cccnc5)CC4)c3n2)cc1 [Compound 589, 1-[2-(methylamino)ethyl]-3-(4-{4-morpholin-4-yl-1-[1-(pyridin-3-ylmethyl)piperidin-4-yl]-1H-pyrazolo[3,4-d]pyrimidin-6-yl}phenyl)urea]	1.1	
0.018	0.04		CCOC(=O)N1CCC(n2ncc3c(N4CCOC[C@@H]4C)nc(-c4ccc(NC(=O)Nc5ccncc5)cc4)nc32)CC1 [Compound 898, ethyl 4-(4-[(3S)-3-methylmorpholin-4-yl]-6-{4-[(pyridin-4-ylcarbamoyl)amino]phenyl}-1H-pyrazolo[3,4-d]pyrimidin-1-yl)piperidine-1-carboxylate]	0.38	
0.053	0.08		O=C(Nc1ccccc1)Nc1ccc(-c2nc(N3CCOCC3)c3cnn(C4CCN(CCCCO)CC4)c3n2)cc1 [Compound 748, 1-(4-{1-[1-(4-hydroxybutyl)piperidin-4-yl]-4-morpholin-4-yl-1H-pyrazolo[3,4-d]pyrimidin-6-yl}phenyl)-3-phenylurea]	0.39	
